Experimental data reported in PMC8658989, “Synthesis and Biological Studies on (KLAKLAK)2-NH2 Analog Containing Unnatural Amino Acid β-Ala and Conjugates with Second Pharmacophore” (Molecules, 2021).
Where “and” joins values, the source holds several entries; their conditions need not be identical. Equal entries are not always repeated. Where two headings read alike, the source gives them in different places. Non-standard residues stand in square brackets, D forms with d. Residues, ends and D or L forms follow the SMILES beside them. *: point of attachment. Acetyl(1,8-naphthalimido) = O=C1c2cccc3cccc(c23)C(=O)N1CC(=O)*; Caffeoyl = O=C(/C=C/c1ccc(O)c(O)c1)*; βAla = NCCC(=O)O

How the values were obtained:
[1] = In vitro cytotoxicity, 3T3 NRU test; type: cell-based; conditions: mouse, BALB/3T3 clone A31 mouse embryo cells, 24 h incubation, 15 to 2000 μM, read-out: IC50 of Mean ± SD Cytotoxicity BALB 3T3 (CC50)
Description: The newly synthesized compounds were studied for cytotoxicity assessment by an in vitro 3T3 NRU test. The cells were incubated with the test substances at a concentration of 15 to 2000 μM for 24 h at 37 °C, 5% CO2 and 95% humidity. The cytotoxicity expressed in % relative to the negative control was determined.
The cytotoxicity testing was performed as described by Borenfreund et al. and the latest modification of the validated BALB/3T3 clone A31 Neutral Red Uptake Assay (3T3 NRU test). BALB/3T3 clone A31 mouse embryo cells were grown as a monolayer in 75 cm^2 tissue culture flasks in high-glucose DMEM (4.5 g/L), supplemented with 10% FBS and antibiotics. Cultures were maintained at 37.5 °C in a humidified atmosphere under 5% CO2. Cells were plated at a density of 1 × 10^4 cells in 100 μL culture medium in each well of 96-well flat-bottomed microplates and allowed to adhere for 24 h before treatment with test compounds, dissolved in DMSO and further diluted in culture medium. A wide concentration range was applied (from 15 to 2000 μM), and the cells were incubated for an additional 24 h. After treatment with Neutral Red medium, washing and application of the ethanol/acetic acid solution (NR Desorb), the absorption was measured on a TECAN microplate reader at wavelength 540 nm. The data obtained are on average from three independent experiments ± SD, n = 6.

MCF-10A = assay: Antiproliferative activity, MTT dye-reduction assay, MCF-10A; type: cell-based, human; conditions: 72 h, read-out: IC50 of Mean ± SD Antiproliferative Activity MCF-10A
Description: (§1) The compounds were studied for antiproliferative activity by MTT dye-reduction assay. Cell cultures from different cell lines (MCF-10A, MCF-7 and MDA-MB-231) were incubated with the test substances at a concentration of 15 to 2000 μM for 72 h at 37 °C, 5% CO2 and 95% humidity. The antiproliferative activity expressed in % relative to the negative control was determined.
MCF-10A is a reliable model for normal human mammary epithelial cells, which serves as a control in experiments to determine antitumor activity.
(§2) The antiproliferative activity testing was performed on cell cultures from several human cell lines using the standard MTT dye-reduction assay, described by Mosmann. The assay is based on the metabolism of the tetrazolium salt 3-(4,5-dimethylthiazol-2-yl)-2,5-diphenyltetrazolium bromide (MTT) to insoluble formazan by mitochondrial reductases. The formazan concentration can be determined spectrophotometrically. The measured absorption is an indicator of cell viability and metabolic activity. The following cell lines were used in the experiments: mammary gland type A adenocarcinoma ER+, PR+ and HER2− (MCF-7); triple-negative breast cancer ER−, PR−, and HER2− (MDA-MB-231); and breast, nontumorigenic epithelial cell line (MCF-10A). The cell lines were routinely grown as monolayers in 75 cm^2 tissue culture flasks under standard conditions (described above). Cells were plated at a density of 1 × 10^3 cells in 100 µL in each well of 96-well flat-bottomed microplates and allowed to adhere for 24 h before treatment with test compounds. A concentration range from 15 to 2000 μM was applied for 72 h. Formazan absorption was registered using a microplate reader at λ = 540 nm. Antiproliferative activities were expressed as IC50 values (concentrations required for 50% inhibition of cell growth), calculated using nonlinear regression analysis (GraphPad Prism 4 Software, https://www.graphpad.com).

MCF-7 = assay: Antiproliferative activity, MTT dye-reduction assay, MCF-7; type: cell-based, human; conditions: for IC50: MTT, 72 h, read-out: IC50 of Mean ± SD Antiproliferative Activity MCF-7; for SI ± SD MCF-7 (selective index): SI = IC50 of MCF-10A/IC50 of MCF-7
Description: as §1, §2

MDA-MB-231 = assay: Antiproliferative activity, MTT dye-reduction assay, MDA-MB-231; type: cell-based, human; conditions: for IC50: MTT, 72 h, read-out: IC50 of Mean ± SD Antiproliferative Activity MDA-MB-231; for SI ± SD MDA-MB-231 (selective index): SI = IC50 of MCF-10A/IC50 of MDA-MB-231
Description: as §1, §2

Escherichia coli K12 407 = assay: Antimicrobial assay, agar/disc diffusion, E. coli; type: cell-based; conditions: 6 μL of 20 μM solution on 6 mm paper disc, 24 h
Description: (§3) The microbial cultures were placed in a thin layer on sterile plates. On sterile paper discs, 6 μL of 20 μM solutions in distilled water of the test compounds was placed. Further, the discs were incorporated into a thin layer of sterile plates (Figure 3). The studies were triplicates for each concentration, and the diameters of the obtained zones represent the average value of the three results.
(§4) All newly synthesized derivatives of (KLAKLAK)2-NH2 at concentrations of 20 μM in distilled water were tested against model strains E. coli NBIMCC K12 407, B. subtilis NBIMCC 3562 and C. albicans NBIMCC 74. The strains were obtained from the National Bank for Industrial Microorganisms and Cell Cultures (NBIMCC, Sofia, Bulgaria). Exponential cultures (1 × 10^7 cfu/mL) of strains E. coli K12 407 were obtained in Luria-Bertani (LB, HiMedia, Mumbai, India); for B. subtilis 3562, an initial bacterial concentration of 1 × 10^6 cfu/mL was obtained in nutrient broth (NB, HiMedia, Mumbai, India); and for C. albicans 74, and initial bacterial concentration of 1 × 10^5 cfu/mL was obtained in yeast mold (YM) medium. Cultivation was performed in an ES-20/60 incubator shaker (Biosan, Riga, Latvia) at 30 °C for B. subtilis 3562 and at 37 °C for E. coli K12 407 and C. albicans 74 with shaking at 220 rpm for 24 h. The agar diffusion method was applied to determine the antimicrobial activity of the tested compounds. LB/NB/YM plates were inoculated by spreading 100 μL of each microbial culture on their surface, followed by incubation at 30/37 °C for penetration of suspension into the agar. After 30 min, sterile paper discs (6 mm in diameter) were soaked with the tested compounds in amounts of 6 µL and placed on the surface of agar Petri dishes. The plates were incubated at 30/37 °C for 24 h. Antimicrobial activity was assessed by measuring the diameter of the obtained inhibition zones. Sterile paper discs soaked with water were used as blank controls. Mean values were calculated by performing the experiments in triplicates.

Bacillus subtilis 3562 = assay: Antimicrobial assay, agar/disc diffusion, B. subtilis; type: cell-based; conditions: 6 μL of 20 μM solution on 6 mm paper disc, 24 h
Description: as §3, §4

Candida albicans 74 = assay: Antimicrobial assay, agar/disc diffusion, C. albicans; type: cell-based; conditions: 6 μL of 20 μM solution on 6 mm paper disc, 24 h
Description: as §3, §4

[2] = Hydrolytic stability in model buffer solutions by HPLC; type: physicochemical; conditions: 72 h, model buffer solutions pH 2, pH 7.4 and pH 9, HPLC
Description: HPLC profiles of all target compounds at three different pH values that mimic human pH in the stomach (pH 2), blood plasma (pH 7.4) and small intestine (pH 9) are presented in the Supplementary Materials.
The designed changes in the structures, i.e., C-terminal amide modification, as well as the introduction of a β-Ala moiety, lead to complete stability of the target compounds during the test period in all model conditions.
The obtained solution was made up to 1000.0 mL with dH2O; • (ii) Buffer with pH 7.4–2.38 g Na2HPO4, 0.19 g KH2PO4 and 8.0 g NaCl was dissolved in dH2O. The obtained solution was made up to 1000.0 mL with dH2O. • (iii) Buffer with pH 9.0–1000.0 mL of solution I was mixed with 420.0 mL of solution II. Solution I: 6.18 g of H3BO3 was dissolved in 0.1 mol/L KCl, and it was made up to 1000.0 mL with the same solvent; Solution II: 0.1 mol/L NaOH.

| SMILES | CC50 at 24 h [1] [µM] | IC50 (MCF-10A) [µM] | IC50 (MCF-7) [µM] | SI ± SD MCF-7 (selective index) (MCF-7) | SI ± SD MCF-7 (selective index) (MCF-7; listed as Si 4) | IC50 (MDA-MB-231) [µM] | SI ± SD MDA-MB-231 (selective index) (MDA-MB-231) | Inhibition zones size, Escherichia coli K12 407 (Escherichia coli K12 407; listed as S4) [mm] | Inhibition zones size, Bacillus subtilis 3562 (Bacillus subtilis 3562; listed as S4) [mm] | Inhibition zones size, Candida albicans 74 (Candida albicans 74) | Inhibition zones size, Candida albicans 74 (Candida albicans 74; listed as Si 4) [mm] | Hydrolytic stability [2] | IC50 (MCF-7; listed as Si 9) [µM] | SI ± SD MCF-7 (selective index) (MCF-7; listed as Si 9) | Inhibition zones size, Escherichia coli K12 407 (Escherichia coli K12 407) | Inhibition zones size, Bacillus subtilis 3562 (Bacillus subtilis 3562) | SI ± SD MCF-7 (selective index) (MCF-7; listed as Si 10) | melting point [°C] | Inhibition zones size, Candida albicans 74 (Candida albicans 74; listed as Si 5) [mm] |
| --- | --- | --- | --- | --- | --- | --- | --- | --- | --- | --- | --- | --- | --- | --- | --- | --- | --- | --- | --- |
| CC(C)C[C@H](NC(=O)[C@H](CCCCN)NC(=O)CCNC(=O)[C@H](CC(C)C)NC(=O)[C@H](CCCCN)NC(=O)CN1C(=O)c2cccc3cccc(c23)C1=O)C(=O)NCCC(=O)N[C@@H](CCCCN)C(=O)N[C@@H](CCCCN)C(=O)N[C@@H](CC(C)C)C(=O)NCCC(=O)N[C@@H](CCCCN)C(=O)N[C@@H](CC(C)C)C(=O)NCCC(=O)N[C@@H](CCCCN)C(N)=O [Si4, 1,8-NphtG-(KLβ-AKLβ-AK)2-NH2] ({Acetyl(1,8-naphthalimido)}-KL[βAla]KL[βAla]KKL[βAla]KL[βAla]K-NH2) | 1220 ± 40.5 | 1330 ± 69.5 | 881 ± 80.5 | 1.51 ± 0.148 | 1.505 ± 0.148 | 1410 ± 26.2 | 0.940 ± 0.049 | 16 | 15.83 | good antimicrobial activity | 14.33 ± 0.36 | complete hydrolytic stability | – | – | – | – | – | – | – |
| CC(C)C[C@H](NC(=O)[C@H](CCCCN)NC(=O)CN1C(=O)c2cccc3cccc(c23)C1=O)C(=O)N[C@@H](C)C(=O)N[C@@H](CCCCN)C(=O)N[C@@H](CC(C)C)C(=O)N[C@@H](C)C(=O)N[C@@H](CCCCN)C(=O)N[C@@H](CCCCN)C(=O)N[C@@H](CC(C)C)C(=O)N[C@@H](C)C(=O)N[C@@H](CCCCN)C(=O)N[C@@H](CC(C)C)C(=O)N[C@@H](C)C(=O)N[C@@H](CCCCN)C(N)=O [Si9, 1,8-NphtG-(KLAKLAK)2-NH2] | 185 ± 4.4 | 99.1 ± 5.59 | 45 ± 4.2 | 2.19 ± 0.147 | – | 179 ± 2.92 | 0.553 ± 0.037 | – | – | 20.66 ± 0.45 mm | – | complete hydrolytic stability | 45.2 ± 4.15 | 2.192 ± 0.147 | 11.33 ± 0.26 mm | 13.50 ± 0.34 mm | – | – | – |
| CC(C)C[C@H](NC(=O)[C@H](CCCCN)NC(=O)/C=C/c1ccc(O)c(O)c1)C(=O)N[C@@H](C)C(=O)N[C@@H](CCCCN)C(=O)N[C@@H](CC(C)C)C(=O)N[C@@H](C)C(=O)N[C@@H](CCCCN)C(=O)N[C@@H](CCCCN)C(=O)N[C@@H](CC(C)C)C(=O)N[C@@H](C)C(=O)N[C@@H](CCCCN)C(=O)N[C@@H](CC(C)C)C(=O)N[C@@H](C)C(=O)N[C@@H](CCCCN)C(N)=O [Si10, Caf-(KLAKLAK)2-NH2] | 173 ± 8.51 | 72.5 ± 4.69 | 50.5 ± 1.66 | 1.4 ± 0.072 and 1.44 | – | 177 ± 2.79 | 0.411 ± 0.023 | – | – | 17.66 ± 0.41 mm | – | complete hydrolytic stability | – | – | 13.33 ± 0.33 mm | 12.66 ± 0.31 mm | 1.436 ± 0.072 | 122 to 124 | – |
| CC(C)C[C@H](NC(=O)[C@H](CCCCN)NC(=O)/C=C/c1ccc(O)c(O)c1)C(=O)NCCC(=O)N[C@@H](CCCCN)C(=O)N[C@@H](CC(C)C)C(=O)NCCC(=O)N[C@@H](CCCCN)C(=O)N[C@@H](CCCCN)C(=O)N[C@@H](CC(C)C)C(=O)NCCC(=O)N[C@@H](CCCCN)C(=O)N[C@@H](CC(C)C)C(=O)NCCC(=O)N[C@@H](CCCCN)C(N)=O [Si12, Caf-(KLβ-AKLβ-AK)2-NH2] (Caffeoyl-KL[βAla]KL[βAla]KKL[βAla]KL[βAla]K-NH2) | 880 ± 30.3 | – | – | – | – | – | – | – | – | did not show any antifungal activity | – | – | – | – | good antimicrobial activity | good antimicrobial activity | – | 160 to 162 | – |
| CC(C)C[C@H](NC(=O)[C@H](CCCCN)NC(=O)CCNC(=O)[C@H](CC(C)C)NC(=O)[C@H](CCCCN)NC(=O)[C@H](CCCCN)NC(=O)CCNC(=O)[C@H](CC(C)C)NC(=O)[C@H](CCCCN)NC(=O)CCNC(=O)[C@H](CC(C)C)NC(=O)[C@@H](N)CCCCN)C(=O)NCCC(=O)N[C@@H](CCCCN)C(N)=O [Si5, (KLβ-AKLβ-AK)2-NH2] (H-KL[βAla]KL[βAla]KKL[βAla]KL[βAla]K-NH2) | 1270 ± 70.7 | 1290 ± 38.1 | 1250 ± 34.1 | 1.028 ± 0.033 | – | 1450 ± 15.7 | 0.890 ± 0.033 | – | – | did not show any antifungal activity | – | complete hydrolytic stability | – | – | 11.83 ± 0.27 mm | 11.16 ± 0.25 mm | – | – | 0 |
